Test results from patent US8512733B2, “Stents with drug-containing amphiphilic polymer coating” (Abbott Laboratories, priority 2001, dated 2013).
Values belong to the compound of their own block, whether it stands above or below them.

What was measured:
[1] = P is the octanol/water partition coefficient; cited from earlier work
[2] = pyrene fluorescence I3/I1 ratio in different environments; assay type: physicochemical; details: peaks at 383 nm (I3) and 373 nm (I1), excitation 335 nm, label = environment of the pyrene
Method: Zwitterionic polymer coatings were investigated by allowing pyrene to diffuse into the polymer and studying the degree to which it is taken up, and the effects on the ratio of the fluorescence band intensities to see if there is any significant indication of the type of environment present.
The solution was used to coat polymethylmethacrylate (PMMA) fluorescence cuvettes by simply pouring into the cuvette, draining, following by an oven curing at 70° C. overnight.
The fluorescence spectrum was recorded using an excitation wavelength of 335 nm and scanned from 350-440 nm on a PE LS 50B Luminescence Spectrophotometer. Subtraction of the spectrum of each coating in water was necessary to remove the interference of a small band at 380 nm present in all methacrylate systems.
Environment information could be obtained by comparing the ratio of the intensity of the peaks at 373 nm (I1) and 383 nm (I3) (I3/I1). Where I3/I1 was similar for polymer systems, the comparative amount of pyrene present could be estimated by the maximum intensity of I1; alternatively, the entire peak area may offer an alternative measure of the comparative amount of pyrene present in different coatings. It was important to mark the side of the cuvette to ensure the same orientations were achieved each time it was replaced in the spectrophotometer.
Pyrene solution added to the coated cuvettes was allowed to stand for 16 h, the cuvette emptied and washed thoroughly with ultrapure water, refilled with ultrapure water and the fluorescence spectrum recorded. The comparative maximum height of I1 was used to estimate the relative amounts of pyrene in the coatings. This was repeated for three cuvettes of each polymer and the average taken.

[3] = test system: porcine arteries; test: In vivo test on estradiol loaded stents; details: one month
[4] = Release of 17β-estradiol from stents, stirred 1000 ml PBS at 37° C.; assay type: physicochemical; details: five stents vigorously stirred in 1000 ml PBS at 37° C., 24 hour period
Method: The elution profile for 17β-estradiol, FIG. 6 from the stents produced in example 1.1, was assessed using an in-vitro test where five stents were vigorously stirred in a large volume (1000 ml) of PBS saline solution at 37° C. […] Aliquots of buffer were removed at various time points over a 24 hour period and analysed for 17β-estradiol content. When translated into in-vivo conditions, the release profile is predicted to be over a prolonged period of time.

[5] = Estradiol elution studies in flow-system at 37° C.; assay type: physicochemical; details: 100 ml/min, 500 ml PBS, 8 hour period
Method: The elution of estradiol was examined in a flow system at 37° C. and evaluated over an 8 hour period. PBS was maintained at 37° C. in six stirred reservoirs (500 ml each) within a water bath. A length of silicone tubing (3 mm internal diameter) was attached from each reservoir to one of six stent chambers (4 mm internal diameter 80 mm long) and back to the respective reservoir via a peristaltic pump. The system was pumped using a flow rate of 100 ml/min to reach equilibrium temperature of 37° C. The flow was stopped and two estradiol loaded 15 mm stents loaded as in Example 1 were placed in each of the six stent chambers, and flow recommenced. A stent was then removed at various time periods and wick dried. These were used to measure the amount of estradiol remaining on the stent. […]. Since the total volume of PBS passing over the stents in the flow model is […], it is likely that throughout the period the rate of desorption of drug from the stent was higher than the rate of absorption from the environment. This condition may not apply to the non-flow method.

[6] = Estradiol elution studies at 25° C., non-flow system; assay type: physicochemical; details: at 4 hours, 5 ml PBS on rollers, 15 mm DD stents from Example 1.1
Method: Elution studies were carried out at 25° C. for […] in gently agitated PBS. This was done by placing 15 mm DD stents loaded with estradiol, from Example 1.1 individually in vials containing 5 ml phosphate buffered saline (PBS) on rollers. At various time intervals up to 7 hours a 1 ml aliquot was removed and replaced with 1 ml fresh PBS. The stents and water aliquots were measured, to give the amount of drug eluted and the amount of drug remaining on the stents.

[7] = pyrene fluorescence; cited from earlier work

Structure (SMILES): C[C@H]1C[C@@H]2[C@H]([C@@H](O)C[C@@]3(C)[C@H]2CC[C@]3(O)C(=O)CO)[C@@]2(C)C=CC(=O)C=C12 [MP, 6α-methylprednisolone]
log P [1]: 1.42

Structure (SMILES): C=CC(=O)OCc1ccccc1 [benzyl acrylate monomer, benzyl acrylate]
I3/I1 ratio [2]: 0.75

Structure (SMILES): O [water]
I3/I1 ratio, literature value [7]: 0.63 | I3/I1 ratio [2]: 0.633

Other lines, results leading:

Re-endothelialization scores [3]: does not inhibit the healing process | release from stent [4]: sustained release | elution compared with Example 2 [5]: eluted relatively more quickly | estradiol still remaining on the stent [6]: 62%
Structure (SMILES): C[C@]12CC[C@@H]3c4ccc(O)cc4CC[C@H]3[C@@H]1CC[C@@H]2O [estradiol, 17β-estradiol]

I3/I1 ratio [2]: 1.029
Structure (SMILES): C=C(C)C(=O)OCCCCCCCCCCCC [lauryl methacrylate]
